Measurements from article PMC12024814, “Ruthenium(II)–Arene Complexes with a 2,2′-Bipyridine Ligand as Anti-Aβ Agents” (Biomolecules, 2025).

Experiments:
Aβ40 = target: T1, Aβ40 (Homo sapiens, UniProt P05067); assay: TEM imaging of DLS filtrates; type: biochemical; conditions: for Ranking TEM: scale 1 to 5 (1 = best, 5 = worst), qualitative
T1 construct: Lyophilized Aβ40 was monomerized following previous procedures; purchased GenScript
Procedure: Samples for TEM were prepared using the DLS filtrates following their analysis. An aliquot (20 µL) was added directly to a copper-coated formvar/carbon 300 mesh grid with a 63 µm pore size (Ted Pella). After settling for 1 min, the solvent was wicked away, then the grid was stained using 2% uranyl acetate (20 µL). After standing for one minute, the solvent was wicked away, and the grid was washed using dH2O (20 µL), which stayed on the grid for one minute before being wicked away. The grids were stored at room temperature until analysis. TEM images were collected using a high-resolution JEOL JEM 2100F operating at 200 kV.
The final evaluative step in the Aβ40 aggregation assay was imaging the samples using transmission electron microscopy (TEM). The samples used in the preparation of the TEM grids were those of the DLS filtrates, thereby allowing for a direct comparison between experimental methods, ultimately resulting in the same sample being measured by three different instruments. […] In order to determine the impact of each complex on Aβ40, multiple images were taken from each prepared grid (Figure S21), thereby providing an accurate representation of the particles.

C6 glioma cells = assay: MTT cell viability assay, C6 glioma cells; type: cell-based, Rattus norvegicus; conditions: for cell morphology versus DMSO-treated control (confocal microscopy): 20 µM; for Ranking Cytotoxicity: scale 1 to 5 (1 = best, 5 = worst), C6 glioma cells
Procedure: Cultures of adherent Rattus norvegicus pheochromocytoma cells (PC-12; ATCC CRL-1721) and axenic Rattus norvegicus C6 glioma cells (ATTC CCL-107) were prepared as previously reported. The cells were cultured using Dulbecco’s Modified Eagle’s medium with low glucose, sodium pyruvate, and without phenol red or L-glutamine (DMEM REF:11054-020; GIBCO; Waltham, MA, USA) and supplemented with 1.5% (v/v) heat-inactivated fetal bovine serum (GIBCO; Waltham, MA, USA), 10% (v/v) sterile filtered horse serum (Sigma-Aldrich, St. Louis, MO, USA), and 4% sterile L-glutamine (Sigma-Aldrich; St. Louis, MO, USA). Medium supplemented with sera was referred to as “complete medium”, while non-supplemented medium was designated as “incomplete”.
For the viability assays, both cell types were grown to confluency before being trypsinized, resuspended in 1 mL of complete medium per confluent well of a 6-well plate, diluted ten-fold, and then counted with a Scepter 2.0 Handheld Automated Cell Counter (Millipore, Burlington, MA, USA) affixed with a 60 µm sensor. Cells were subsequently seeded (adding 100 µL per well, thus adding an average of 1.0 × 10^4 cells per well) into poly-L-lysine-coated flat-bottomed 96-wells using separate plates for each cell type. Stock solutions of the Ru complexes were prepared in DMSO, with an appropriate dilution using DMSO to the testing concentrations of 40, 20, 2, or 0.2 µM. In all cases, the final concentration of DMSO was 1% with cell incubations. Solutions of the Ru complexes or DMSO were introduced 24 h after cell plating and incubated a further 24 h unless otherwise indicated. Replicate wells (n = 4) were set up for each experimental variation. No cell controls were also set up, containing the Ru complex in DMSO additions, so that potential spectral signals could be blanked out for the spectrophotometric 3-[4,5-dimethylthiazol-2-yl]-2,5-diphenyltetrazoliumbromide (MTT) viability assay, as described below.
To assess the viability of the cells with and without Ru additions, cell viability tests were performed using an MTT assay following the procedure of Mosmann with the following variations: Before adding the MTT reagent (5 mg/mL water), 90 µL of the complete medium was removed from each well, and 90 µL of incomplete medium was added. Then, 10 µL of MTT reagent was added per well, gently mixed, and incubated at ambient temperature for one hour. The reactions were stopped by the addition of 100 µL per well of the stopping reagent (10% v/v Triton X-100, 1 mM HCl in isopropanol) to lyse the cells and dissolve the formed formazan crystals. The absorbance values were recorded using a Bio-Rad® Microplate Reader Benchmark at 595 nm. All MTT data were normalized to the DMSO controls by calculating the average percent of DMSO control with the following formula: average cell+Ru MTT−average (Ru blank MTT)/average control cell MTT−average (control blank MTT) × 100
Data were obtained from 4 replicates and reported as a percent of control cells.
A final step in the evaluation of the Ru complexes was completed using a standard MTT cell viability assay towards two neuronal cells lines. The cell lines used were glial cells, as these are the most abundant cell type within the brain [61], and chromaffin cells, which would provide an indication regarding stress response. Taken together, these would provide information regarding the overall biocompatibility of the Ru complexes.

[1] = target: T2, human serum albumin (HSA) (Homo sapiens, UniProt P02768); assay: Protein binding assay, dansyl glycine (DG) displacement, Sudlow site II; conditions: for Log K (DG), conditional binding constant to serum albumin: dansyl glycine probe, Sudlow site II, Stern–Volmer slope, HSA and DG 2.5 μM, PBS; for Ranking HSA: scale 1 to 5 (1 = best, 5 = worst), binding to HSA
T2 construct: purchased Sigma Aldrich
T2 sequence (P02768 25-609): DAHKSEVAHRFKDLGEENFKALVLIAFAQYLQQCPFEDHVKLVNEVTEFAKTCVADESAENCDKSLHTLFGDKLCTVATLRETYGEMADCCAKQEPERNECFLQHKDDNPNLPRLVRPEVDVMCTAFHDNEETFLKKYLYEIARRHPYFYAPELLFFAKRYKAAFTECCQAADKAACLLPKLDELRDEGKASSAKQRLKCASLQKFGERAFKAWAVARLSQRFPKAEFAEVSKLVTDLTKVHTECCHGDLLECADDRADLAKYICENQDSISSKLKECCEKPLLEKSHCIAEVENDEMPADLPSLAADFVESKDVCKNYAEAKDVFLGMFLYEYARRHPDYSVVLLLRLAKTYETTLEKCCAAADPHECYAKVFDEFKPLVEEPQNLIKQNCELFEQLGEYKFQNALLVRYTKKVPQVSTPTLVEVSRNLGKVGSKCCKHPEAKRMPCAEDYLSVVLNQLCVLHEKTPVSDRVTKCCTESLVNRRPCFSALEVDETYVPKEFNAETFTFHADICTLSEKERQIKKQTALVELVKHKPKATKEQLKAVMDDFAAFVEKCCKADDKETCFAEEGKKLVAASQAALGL
Procedure: A stock of human serum albumin (HSA, 100 μM) was prepared using PBS, while the probes dansyl glycine (DG) and warfarin (WF) were prepared by initially dissolving them in DMSO and diluting them with PBS until the concentration of DMSO was less than 5%. Solutions of each Ru complex were prepared by initial dissolution in DMSO and subsequent dilution using PBS until the concentration of DMSO was less than 5%. The total volume of each sample was 3.5 mL, where the concentration of HSA and DG/WF was 2.5 μM throughout the experiment. The Ru concentration ranged from 0 μM to 62.5 μM, with an increase of 12.5 μM for each sample. In total, six samples were prepared for each protein binding assay. After preparation, the samples were placed on an IKA Trayster inversion mixer (60 rpm) for 30 s and incubated at approximately 28 °C in a Neslab gp-200 for 15 min, before being placed back on the inversion mixer (60 rpm) for 30 s. All fluorescence measurements for the protein binding assay were made using a PTI QuantiMaster 50, and the samples were measured at room temperature with conditions respective to the probe.
One important consideration for a potential AD therapeutic is its interaction with serum proteins, specifically albumin (HSA). […] To determine the potential association of the prepared Ru complexes with HSA, a protein binding assay was performed. For these studies, the displacement of two fluorometric probes was used to determine the relative affinity of the Ru complexes for two of the established binding sites on HSA. The first probe, warfarin (WF), an anticoagulant, binds selectively to Sudlow site I on HSA [55], while the second probe used was dansyl glycine (DG), which selectively binds to Sudlow site II on HSA [56]. As these are the two major binding sites on the protein, the probes allow for observations of binding events that occur within these hydrophobic pockets. Individually, the probes were initially mixed with HSA, followed by increasing amounts of the respective Ru complexes, whereby the decrease in fluorescence signals from the respective probes (Figures S22–S30) was used to construct a Stern–Volmer plot, where the slope of the line represents the conditional binding constant (K’) for the respective Ru complexes to each site (Figure 8).

T1 sequence (P05067 672-711 limits assumed): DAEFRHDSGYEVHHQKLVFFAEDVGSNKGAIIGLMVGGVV

Row | Compound | appearance of Aβ40 particles in TEM images (Aβ40; DLS filtrates after 6 h co-incubation) | Ranking TEM (Aβ40) | cell morphology versus DMSO-treated control (confocal microscopy) (C6 glioma cells; C6 cells, 24 h) | Ranking Cytotoxicity (C6 glioma cells) | Log K (DG), conditional binding constant to serum albumin [1] | Ranking HSA [1] | toxicity (MTT) (C6 glioma cells; C6 cells, 20 and 40 µM, 24 h)
1 | [Ru(η^6-p-cymene)(4,4′-diamino-2,2′-bipyridine)Cl]PF6 [RuBA] | most dispersed and least dense particles | 1 | virtually indistinguishable | 1 | 4.07 | 5 | –
2 | [Ru(η^6-p-cymene)(4,4′-di-tert-butyl-2,2′-bipyridine)Cl]PF6 [RuBtB] | – | 4 | severely reduced in numbers and cell shapes | 5 | 3.85 | 1 | substantial toxicity
3 | Cc1ccc(C(C)C)cc1.F[P-](F)(F)(F)(F)F.[Cl-].[Ru+2].c1ccc(-c2ccccn2)nc1 [RuB, [Ru(η^6-p-cymene)(2,2′-bipyridine)Cl]PF6] | – | 2 | – | 4 | 3.96 | 3 | –
4 | Cc1ccc(C(C)C)cc1.Cc1ccnc(-c2cc(C)ccn2)c1.F[P-](F)(F)(F)(F)F.[Cl-].[Ru+2] [RuBMe, [Ru(η^6-p-cymene)(4,4′-dimethyl-2,2′-bipyridine)Cl]PF6] | – | 3 | – | 2 | 3.99 | 4 | –
5 | [Ru(η^6-p-cymene)(4,4′-dimethoxy-2,2′-bipyridine)Cl]PF6 [RuBMeO] | – | 5 | – | 3 | 3.91 | 2 | –
